pIC50: −log10 of the molar value.

As a reminder, the pIC50 is the IC50 on a negative log10 scale, so that one unit is a factor of ten.

One assay deals with DCN1-UBC12 interaction (Homo sapiens (Human), UniProt Q96GG9). Briefly: biochemical. It is filed as binding. Particulars: TR-FRET IC50.
Chain of DCN1-UBC12 interaction (Q96GG9 60-248 limits assumed): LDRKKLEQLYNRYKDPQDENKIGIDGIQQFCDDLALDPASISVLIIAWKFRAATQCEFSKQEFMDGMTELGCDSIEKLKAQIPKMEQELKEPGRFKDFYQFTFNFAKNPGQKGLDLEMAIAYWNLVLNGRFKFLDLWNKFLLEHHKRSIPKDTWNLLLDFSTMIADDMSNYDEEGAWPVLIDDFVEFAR
`COc1ccccc1CN1CCC(N(Cc2ccccc2)C(=O)Nc2cc(F)cc(C(F)(F)F)c2)CC1` [A224]: the pIC50 is under 4.60.

The same assay, now with this note: Table 4, commercial compounds; read-out: TR-FRET IC50.
As to `CCc1ccc(NC(=O)C2CCN(C(=O)N3CC(C)Oc4ccccc43)CC2)cc1` (centres unmarked) [C52], the pIC50 was under 4.17.
Still for that read-out and setting: to `CCOc1ccccc1NC(=O)C1CCN(C(=O)c2ccc(OC)cc2)CC1` [C47] belongs under 4.17; to `COc1ccc(C(=O)N2CCC(C(=O)Nc3cccc(C(F)(F)F)c3)CC2)cc1` [C1, 1-(4-Methoxybenzoyl)-N-(3-(Trifluoromethyl)Phenyl)Piperidine-4-Carboxamide], 5.09.
Same read-out and setting: then `Cc1ccc(C(=O)N2CCC(C(=O)Nc3ccc(Cl)c(C(F)(F)F)c3)CC2)cc1` [C26], with under 4.17; and `CCc1cccc(NC(=O)C2CCN(C(C)=O)CC2)c1` [C32], with under 4.17; and `COc1ccc(C(=O)N2CCC(C(=O)Nc3cccc([N+](=O)[O-])c3)CC2)c2ccccc12` [C60], with under 4.17.
As for `Cc1ccc(NC(=O)C2CCN(C(=O)c3ccc(Cl)cc3)CC2)cc1Cl` [C6], the pIC50 was 4.42.
Same read-out and setting: then `COc1ccc(C(=O)N2CCC(C(=O)Nc3cccc(C)c3C)CC2)cc1` [C19], with under 4.17.

Staying with this assay, now noted: Table 6, commercial compounds; read-out: TR-FRET IC50.
For the compound `COCCN1CCN(C(=O)c2cnn(-c3ncc(C)c(-c4cccs4)n3)c2C)CC1` [E32], the pIC50 is under 4.17.
Same read-out and setting: then `Cc1cnc(-n2ncc(C(=O)N(C)CC(C)C)c2C)nc1-c1cccs1` [E41], with under 4.17; and `COCCN(C(=O)c1cnn(-c2nccc(-c3cccs3)n2)c1C)C(C)C` [E45], with under 4.17; and `Cc1cnc(-n2ncc(C(=O)NCCC(C)C)c2C)nc1-c1cccs1` [E29], with under 4.17.
On to `CCN(CC)CCN(CC)C(=O)c1cnn(-c2nccc(-c3cccs3)n2)c1C` [E3], for which the pIC50 was 5.11.
Consider `CCN(CCN(C)C)C(=O)c1cnn(-c2ncc(C)c(-c3cccs3)n2)c1COC` [E46], for which the pIC50 is under 4.17.
On the same count and under the same terms, to `C=CCN(CC=C)C(=O)c1cnn(-c2ncc(C)c(-c3cccs3)n2)c1C` [E48] belongs under 4.17; to `CCOC(=O)N1CCN(C(=O)c2cnn(-c3ncc(C)c(-c4cccs4)n3)c2C)CC1` [E12], 4.55.

The assay is the same for the next values; noted with them: Table 7, commercial compounds; read-out: TR-FRET IC50.
Regarding `CCc1ccc(C2c3c(C)nn(C)c3NC(=O)C2NC(=O)c2ccc(OC)c(OC)c2)cc1` (centres unmarked) [F24], the pIC50 is under 4.17.
With `COc1ccc(C(=O)NC2C(=O)Nc3c(c(C)nn3C)C2c2ccc(Cl)c(Cl)c2)cc1OC` (centres unmarked) [F30], the pIC50 was under 4.17.
For `CCOc1ccc(C2c3c(C)nn(C)c3NC(=O)C2NC(=O)c2ccc(Cl)cc2)cc1OC` (centres unmarked) [F25], the pIC50 was under 4.17.
Same read-out and setting: to `Cc1cccc(C(=O)NC2C(=O)Nc3c(c(C)nn3C)C2c2ccc(C(C)(C)C)cc2)c1` (centres unmarked) [F13] belongs under 4.17.
The same measure, in the same setting: then `COc1ccc(C2c3c(C)nn(C)c3NC(=O)C2NC(=O)c2ccc(Cl)cc2)cc1F` (centres unmarked) [F31], with under 4.17.
Still for that read-out and setting: then `CSc1ccc(C2c3c(C)nn(C)c3NC(=O)C2NC(=O)c2cccc(C)c2)cc1` (centres unmarked) [F6], with 4.40.

The same assay, now with this note: read-out: TR-FRET IC50.
Regarding `CCCC(C)N1CCC(N(Cc2ccccc2)C(=O)Nc2ccccc2CC)CC1` (centres unmarked) [A270], the pIC50 is under 4.17.
For `CCCCN1CCC(N(Cc2ccccc2)C(=O)Nc2ccc(C)s2)CC1` [A182], the pIC50 is 4.67.
As for `COc1ccc(CN(C(=O)Nc2ccccc2F)C2CCN(C(C)=O)CC2)cc1` [B86], the pIC50 was under 4.17.
On to `Cc1cccc(CC(=O)NC2CCN(Cc3ccccc3)CC2)c1` [B21], for which the pIC50 is over 8.39.
With `O=C(Nc1cc(F)cc(C(F)(F)F)c1)N(Cc1ccccc1)C1CCN(Cc2cc[nH]n2)CC1` [A213], the pIC50 is under 4.65.
The same measure, in the same setting: to `O=C(CN1CCN(c2cccc(Cl)c2)CC1)Nc1cccc(C(F)(F)F)c1` [B31] belongs under 4.27; to `CCCC(C)N1CCC(N(Cc2ccccc2)C(=O)Nc2cc(Cl)c(Cl)cc2F)CC1` (centres unmarked) [A78], 6.10.
In the case of `O=C(NC1CCN(Cc2ccccc2)CC1)NC1CCC2(CC1)OCCO2` [B26], the pIC50 was under 3.78.
On the same count and under the same terms, to `O=C(Nc1ccccc1)NC1CCN(Cc2ccccc2)CC1` [B20, 1-(1-Benzylpiperidin-4-yl)-3-Phenylurea] belongs over 8.39; to `CC(=O)N1CCC(N(Cc2ccco2)C(=O)Nc2ccc(C)c(C)c2)CC1` [B69], under 4.17.
Same read-out and setting: to `CCCC(C)N1CCC(N(Cc2ccccc2)C(=O)Nc2ccccc2OC(F)(F)F)CC1` (centres unmarked) [A191] belongs 4.35; to `CCCC(C)N1CCC(N(Cc2ccccc2)C(=O)Nc2cc(Cl)cc(C(F)(F)F)c2)CC1` (centres unmarked) [A113], 5.63; to `CCCC(C)N1CCC(N(Cc2ccccc2)C(=O)Nc2cccc(C)c2C)CC1` (centres unmarked) [A271], under 4.17.
As for `O=C(Nc1ccncc1[NH2+][O-])NC1CCN(Cc2ccccc2)CC1` [B120], the pIC50 was under 4.10.
Still for that read-out and setting: then `CCC(C)CN1CCC(N(Cc2ccccc2)C(=O)Nc2cc(F)cc(C(F)(F)F)c2)CC1` (centres unmarked) [A121], with 6.00.
With `CCCCN(C(=O)Nc1cc(F)cc(C(F)(F)F)c1)C1CCN(C(C)CCC)CC1` (centres unmarked) [A84], the negative logarithm of the IC50 (pIC50) was 6.04.
Regarding `O=C(c1ccc(Br)cc1)N1CCCC(c2nc3ccccc3s2)C1` (centres unmarked) [D27], the pIC50 was under 4.17.
`CCCC(C)N1CCC(N(Cc2ccccc2)C(=O)Nc2ccc(Oc3ccc(Cl)cc3)cc2)CC1` (centres unmarked) [A22]: the pIC50 is 6.88.
The same measure, in the same setting: to `CC1CC(NC(=O)NC2CCCNC2=O)CCN1Cc1ccccc1` (centres unmarked) [B36] belongs under 4.24.
Still for that read-out and setting: then `CCCC(C)N1CCC(N(Cc2ccccc2)C(=O)Nc2ccc(SC(F)(F)F)cc2)CC1` (centres unmarked) [A14], with 7.07; and `O=C(Nc1cccc(I)c1)NC1CCN(Cc2ccccc2)CC1` [B98], with under 4.17.
For the compound `CCCCN1CCC(N(Cc2ccccc2)C(=O)Nc2cccc([N+](=O)[O-])c2)CC1` [A104], the pIC50 is 5.73.
On to `CCCC(C)N1CCC(N(Cc2ccc3c(c2)OCO3)C(=O)Nc2cc(F)cc(C(F)(F)F)c2)CC1` (centres unmarked) [A51], for which the negative-log IC50 (pIC50) is 6.56.
On the same count and under the same terms, then `CCCC(C)N1CCC(N(Cc2ccccc2)C(=O)Nc2cc(C)cc(Cl)c2)CC1` (centres unmarked) [A99], with 5.85.
The same measure, in the same setting: then `CCCC(C)N1CCC(N(Cc2ccccc2)C(=O)Nc2cc(F)cc(C(F)(F)F)c2)CC1` (centres unmarked) [A6], with 7.24.
Consider `CC(CCN1CCC(N(Cc2ccccc2)C(=O)Nc2cc(F)cc(C(F)(F)F)c2)CC1)c1ccccc1` (centres unmarked) [A127], for which the pIC50 is 5.65.
On the same count and under the same terms, to `CCCC(C)N1CCC(N(Cc2ccccc2)C(=O)Nc2ccc(C(F)(F)F)cc2)CC1` (centres unmarked) [A41] belongs 6.62.
As for `C#Cc1ccccc1CN1CCC(N(Cc2ccccc2)C(=O)Nc2cc(F)cc(C(F)(F)F)c2)CC1` [A123], the pIC50 was 5.95.
With `CCCN1CCC(NC(=O)Nc2ccc(Cl)cc2Cl)CC1` [B14], the pIC50 is 4.37.
Regarding `O=C(Nc1cccc(C(F)(F)F)c1)N1CCN(C(c2ccccc2)c2ccccc2)CC1` [B40], the pIC50 is under 4.20.
Regarding `CCCC(C)N1CCC(N(Cc2ccccc2)C(=O)Nc2cc(F)c(F)c(F)c2)CC1` (centres unmarked) [A59], the pIC50 is 6.45.
On the same count and under the same terms, then `O=C(Nc1ccc2c(c1)OCCO2)N(Cc1ccco1)C1CCN(Cc2ccccc2)CC1` [B115], with under 4.13; and `C#CCCCN1CCC(N(Cc2ccccc2NC(=O)CC)C(=O)Nc2ccc(Cl)c(Cl)c2)CC1` [A200], with under 4.82; and `O=C(Nc1cc(F)cc(C(F)(F)F)c1)N(Cc1ccccc1)C1CCN(Cc2ccc(N3CCCC3)cc2)CC1` [A201], with under 4.72.
The same measure, in the same setting: to `C=CC(=O)NCCCN(C(=O)Nc1cccc(C(F)(F)F)c1)C1CCN(C(C)CCC)CC1` (centres unmarked) [drawing 834] belongs 5.48; to `CCCC(C)N1CCC(N(Cc2ccccc2)C(=O)Nc2ccc(C)cc2Cl)CC1` (centres unmarked) [A175], 4.87; to `CCCC(C)N1CCC(N(Cc2ccccc2)C(=O)Nc2ccc(Cl)nc2)CC1` (centres unmarked) [A277], under 4.16.
The same measure, in the same setting: to `O=C(Nc1ccccc1Cl)NC1CCN(Cc2ccccc2)CC1` [B55] belongs under 4.17; to `CCCC(C)N1CCC(N(Cc2ccccc2)C(=O)Nc2ccc(S(=O)(=O)Nc3ccc(OC)nn3)cc2)CC1` (centres unmarked) [A296], under 4.08; to `CCc1ccccc1NC(=O)NC1CCN(Cc2ccccc2)CC1` [B53], under 4.17.
In the case of `CCc1ccccc1NC(=O)N(Cc1ccco1)C1CCN(C(C)=O)CC1` [B74], the pIC50 was under 4.17.
Still for that read-out and setting: to `CCCC(C)N1CCC(N(Cc2ccccc2)C(=O)Nc2ccc(C(=O)OC)cc2I)CC1` (centres unmarked) [A190] belongs 4.42; to `COc1cc(C(=O)N2CCCC(c3nc4ccccc4s3)C2)cc(OC)c1OCC(N)=O` (centres unmarked) [D24], under 4.17; to `CCCC(C)N1CCC(N(Cc2ccccc2)C(=O)Nc2cc(OC)c(OC)c(OC)c2)CC1` (centres unmarked) [A246], under 4.25.
As for `CCCC(C)N1CCC(N(Cc2ccccc2)C(=O)Nc2ccc(Oc3ccccc3)c(C(F)(F)F)c2)CC1` (centres unmarked) [A75], the pIC50 was 6.14.
Same read-out and setting: then `CCCCN1CCC(N(Cc2ccccc2)C(=O)Nc2cccc(C#N)c2)CC1` [A242], with under 4.28; and `C=CS(=O)(=O)NCCN(C(=O)Nc1cccc(C(F)(F)F)c1)C1CCN(C(C)CCC)CC1` (centres unmarked) [A235], with under 4.39.
On the same count and under the same terms, then `CCCCN1CCC(N(Cc2ccccc2)C(=O)Nc2ccc(F)c(Cl)c2)CC1` [A89], with 5.96; and `CCCC(C)N1CCC(N(Cc2ccccc2)C(=O)Nc2ccc(Cl)c([N+](=O)[O-])c2)CC1` (centres unmarked) [A11], with 7.09; and `CCCC(C)N1CCC(N(Cc2ccccc2)C(=O)Nc2cccc(SC)c2)CC1` (centres unmarked) [A44], with 6.59.
On the same count and under the same terms, then `O=C(c1ccccc1Cl)N1CCC(c2nc3ccccc3s2)CC1` [D6], with 4.73; and `CCCC(C)N1CCC(N(Cc2ccccc2)C(=O)Nc2ccc(F)cc2Br)CC1` (centres unmarked) [A302], with under 4.06.
In the case of `CCCCN1CCC(N(Cc2ccccc2)C(=O)Nc2cccc(CC)c2)CC1` [A63], the pIC50 was 6.38.
Consider `COc1cc(OC)cc(C(=O)N2CCC(c3nc4ccccc4s3)CC2)c1` [D22], for which the pIC50 is under 4.17.
`CCN1CCC(N(Cc2ccco2)C(=O)Nc2cccc(C(F)(F)F)c2)CC1` [B3]: the pIC50 is 5.42.
Consider `Cc1cc(NC(=O)NC2CCN(Cc3ccccc3)CC2)c(C(F)(F)F)o1` [B119], for which the pIC50 was under 4.10.
On the same count and under the same terms, to `CCCCN(C(=O)Nc1cccc(C(F)(F)F)c1)C1CCN(CCC)CC1` [A96, 1-Butyl-1-(1-Propylpiperidin-4-yl)-3-(3-(Trifluoromethyl)Phenyl)Urea] belongs 5.88.

Source of the values: patent US11116757B2 (priority 2015, dated 2021).
